# Source: patent US20250333733A1, “NOVEL TARGETS AGAINST OVARIAN CANCER” (UNIVERSITY OF PUERTO RICO, priority 2022, published 2025)
# What was measured:
# OVCAR3CIS cells [1] = assay: Matrigel transwell invasion assay; format: cell-based; conditions: vs NC-siRNA
# Procedure: (§1) Cell invasion was measured using the Matrigel transwell method. OVCAR3CIS (3.0×10^4 cells/mL) or SKOVip1CIS (3.5×10^4 cells/mL) were seeded into 10 cm Petri dishes and transfected with siRNAs. Twenty-four hours later, serum-free matrigel (BD Biosciences CA, USA) was added onto the upper chambers of 24-well plates and incubated at 37° C. for polymerization. Transfected cells were collected and resuspended in serum-free and re-seeded onto the Matrigel-coated chambers. Medium containing 10% FBS was added to the lower area of the wells, and the plates incubated for 48 hours at 37° C. The medium was removed, and cells that invaded through the matrigel fixed and stained using ProtocolHema 3 Stain Set (Fisher Scientific MI, USA). Invaded cells were microscopically counted using a digital camera to capture images at a 20× resolution. The percentage of cell invasion was calculated using the NC-SIRNA condition as 100% cell invasion.
# CASC10 = assay: RT-qPCR of CASC10 expression after siRNA transfection in SKOV3ip1 cells; format: cell-based, human; conditions: SKOV3ip1 cells as printed
# Procedure: SiRNA ON-TARGET plus SMARTpool (a mixture of 4 siRNA as a single tube) and a negative control siRNA (NC-siRNA) (Sigma-Aldrich) were used for transfection studies. CASC10, was targeted by using two siRNAs targeting different regions of the CASC10 RNA (e.g., CASC10-siRNA (1) and CASC10-siRNA (2)). OVCAR3CIS or SKOV3ip1CIS cells were seeded into 12-well plates at 3.0×10^4 cells/mL. The next day, siRNAs were mixed with HiPerfect transfection reagent (Qiagen, Valencia, CA) at a 1:2 ratio (SIRNA: HiPerfect) in serum and antibiotic-free Opti-MEM medium (Gibco) and added to the cells. After twenty-four hours the media was replaced by regular culture media, and cells were cultured and used for further experiments. To assess siRNA transfection efficiency, cells were collected 24 hours after siRNA transfection.
# A custom-made 384-well plate containing pre-designed forward and reverse primers was purchased from Bio-Rad (CA, USA). Total RNA was isolated from OVCAR3 and OVCAR3CIS cells using the GenElute Mammalian Total RNA Mini Kit (Millipore-Sigma, MO, USA) following the manufacturer's instructions. […] Fold-changes and cycle threshold (Ct) values were calculated by the instrument's internal software relative to OVCAR3 cells and normalized to B-actin along with controls for gDNA, PCR reaction, RT reaction, and RNA quality.
# SKOV3IP1CIS = assay: Matrigel transwell invasion assay; format: cell-based, human
# Procedure: as §1
# Caspase-3 = Caspase-3 fluorometric activity in SKOV3ip1CIS cells; format: cell-based, human; conditions: 72 hours after transfection, vs NC-siRNA
# Procedure: Caspase-3 activity was quantified using the Caspase-3/CPP32 Fluorometric Assay Kit (BioVision CA, USA) as per the manufacturer's instructions. OVCAR3CIS (3.0×10^4 cells/mL) or SKOV3ip1CIS (3.5×10^4 cells/mL) were seeded into 10 cm Petri dishes and transfected with NC-siRNA or CASC10-siRNA (2). Twenty-four hours later, the media was replaced by regular media, and seventy-two hours after transfection, cells were collected, pellets lysed, and total protein concentration determined. Equal amounts of protein were mixed with 2×Reaction Buffer and 1 mM DEVD-AFC substrate in a 96-well plate and incubated at 37° C. for 2.5 hours. Fluorescence intensity at 400 nm excitation and 505 nm emission was measured.
# OVCAR3CIS = assay: Cell cycle progression by flow cytometry; format: cell-based; conditions: 48 hours post-transfection
# Procedure: To assess cell cycle progression, OVCAR3CIS (3.0×10^4 cells/mL) or SKOV3ip1CIS (3.5×10^4 cells/mL) were seeded into 10 cm Petri dishes and transfected with NC-siRNA or CASC10-siRNA (2). Forty-eight hours later, attached cells were collected, washed in ice-cold PBS, fixed with 70% cold ethanol, and stored at 4° C. Cells were then washed with ice-cold PBS, resuspended in propidium iodide (PI)/RNase Staining Buffer, incubated in the dark for 15 minutes at room temperature, and then analyzed by flow cytometry in BD C6 Accuri (CA, USA). Accuri's software was used to determine the percentage of cells in each cell cycle phase.
# OVCAR3CIS cells [2] = assay: RNA-seq after siRNA-mediated CASC10 knockdown; format: cell-based
# Procedure: The RNA sequencing library was prepared by first extracting, total RNA using the GenElute Mammalian Total RNA Miniprep Kit (Sigma). RNA sample integrity was evaluated and RNAs with a RIN >7 were used.
# RNA fragmentation was carried out for 10 minutes, followed by first-and second-strand cDNA synthesis and adenylation using the TruSeq Stranded Total RNA with Illumina Ribo-Zero Plus rRNA Depletion (Illumina, San Diego, CA). The PCR products were run on a flow cell running a 50 base paired-end (2X50) recipe. The differential expression analysis was carried out using the DESeq2 (version 1.28.1) package (R version 4.0.1). As the count data was obtained in two batches, a batch correction term was introduced in the DESeq2 model using ComBat Seq to have better statistical power and control of false positives. The Ensembl IDs were converted to gene symbols and names using the org.Hs.eg.db package (version 3.11.4). […]
substance,measurement,setting,value
"CASC10-siRNA (2): siRNA targeting CASC10 RNA, SEQ ID NO 3 and 4: 5′ GACUCUUGGAUCCAAGUUU(dT)(dT) 3′ / 5′ AAACUUGGAUCCAAGAGUC(dT)(dT) 3′ (chain 1 GACUCUUGGAUCCAAGUUUNN; chain 2 AAACUUGGAUCCAAGAGUCNN; 3' dTdT overhangs, chemistry not fully specified)",reduction of invasiveness,OVCAR3CIS cells [1],62%
same,decrease of CASC10 relative expression,CASC10,75%
same,reduction of invasion ability,SKOV3IP1CIS,58%
same,increase in caspase-3 activity,Caspase-3,4 fold
same,cell cycle progression,OVCAR3CIS,cell cycle arrest in the G0/G1 to S phase
same,differentially expressed genes,"OVCAR3CIS cells [2]; log2 fold change >1.2 or <−1.2, p-value ≤0.01, vs NC-siRNA",32
same,differentially abundant transcripts exclusive of CASC10-siRNA (2) compared with NC-siRNA,OVCAR3CIS cells [2]; padj <0.01,"1,400"
